The numbers were not newly measured in US20250262160A1, “COMPOSITIONS FOR MODIFIED RELEASE OF ACTIVE INGREDIENTS” (PROLEVI BIO AB, priority 2022, published 2025), which cites them from elsewhere.

Like-named read-outs stand apart in the source and are kept apart here.

The conditions of data set [1]: assumed parameter for IVIVC, as reported in literature.

A word on the bioavailability: it is the share of a dose that reaches the circulation, judged against a reference dose that is usually intravenous. The term Tmax denotes the time from dosing to the highest level. Regarding `N[C@@H](Cc1cc(I)c(Oc2ccc(O)c(I)c2)c(I)c1)C(=O)O` [Formulation T3, triiodothyronine], the “Volume of distribution (Vd)” value (body weight 75 kg euthyroid individual, parameter used for IVIVC) was 0.2 L/kg. Moreover, under “estimated, parameter used for IVIVC”, the “Half-life (t½) after baseline (120 ng/dL) correction” value is recorded as 4 h. The elimination half-life (in adults) was 23 to 25 h. Also, where the note is “in vivo”, the biological half-life is listed as 2.5 days and the “estimated baseline corrected half-life” value was 4 h. In addition, the bioavailability (parameter used for IVIVC) is 95%. The time to peak (Tmax) (thyroidectomized patients administered exogenous hormone) was 2.9 h. Further, the T1/2 half-life (thyroidectomized patients administered exogenous hormone, after last LT3 dose withdrawal) is 3.62 h.
Turning to `COc1ccc2[nH]cc(CCNC(C)=O)c2c1` [melatonin], in data set [1], the “Half-life (T1/2)” value is recorded as 45 min and the “oral bioavailability (BA)” value is on record as 15%. For the same molecule, the “Volume of distribution (Vd)” value in data set [1] (body weight 75 Kg) is given as 1602 L.
